The text below walks through data of the supplement of paper PMC11616607.

In the first assay the test system is OVCAR5. Kind of assay: drug sensitivity score (DSS) from 5-point dose-response viability curve (DSS (area-under-curve based score)); higher = more sensitive (stronger growth inhibition or killing); extreme values may be limits of the assay. To be noted: exposure time: 72 h; concentration range: 5 concentrations over 10,000-fold range. The method in brief: (§1)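 Ovarian cancer and normal ovarian cell lines were tested in 384-well plates. Drugs were acoustically dispensed (Echo 550) in DMSO or water at five concentrations spanning a 10,000-fold range, then 1,500 cells per well were added and incubated 3 days at 37°C, 5% CO2. Viability was read by CellTiter-Glo luminescence on a PHERAstar FS. Drug sensitivity score was derived per cell line and drug with Breeze software; higher means more sensitive, zero means no response.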
As for `CCn1cc(-c2ccnc3[nH]c(-c4cccc(CN(C)C)c4)cc23)c(-c2ccc(NC(=O)N(C)C)cc2)n1`, the drug sensitivity score came to 2.
Regarding `CN1CCN(C2CCC(n3cc(-c4ccc(Oc5ccccc5)cc4)c4c(N)ncnc43)CC2)CC1` (configuration not stated), the drug sensitivity score came out at 15.1.
On the same count and under the same terms, under `CNC(=O)c1ccccc1Nc1nc(Nc2ccc3c(c2OC)CCC[C@H](N2CCN(CCO)CC2)C3)ncc1Cl` stands 9.1.
`CNc1nc(-c2ccc3c(N)n[nH]c3c2)cc(N2C[C@@H](C(=O)NC3CCCCC3)CC[C@H]2C)n1` returned a drug sensitivity score of 0.
In the case of `CONC(=O)c1ccccc1Nc1cc(Nc2cc(C)nn2C(C)C)ncc1Cl`, the drug sensitivity score is 0.3.
As to `COc1cc2ncnc(Oc3cccc(NC(=O)Nc4cc(C(C)(C)C(F)(F)F)on4)c3)c2cc1OC`, the drug sensitivity score was found to be 3.
Same read-out and setting: under `COc1ccc2[nH]cc(/C=C3\C(=O)Nc4ccc(NC(=O)CCN5CCCCC5)cc43)c2c1` stands 9.4; under `C[C@@H](Oc1cc(-n2cnc3ccc(CN4CCN(C)CC4)cc32)sc1C(N)=O)c1ccccc1C(F)(F)F`, 19.4; under `O=C(NC[C@H](O)CN1CCc2ccccc2C1)c1cc(NC2COC2)ncn1`, 0.8.
On the same count and under the same terms, then `O=C1Cc2cc(C(=O)NC3C[C@H]4CC[C@@H](C3)N4S(=O)(=O)CC3CCN(CCCC(F)(F)F)CC3)c(Cl)cc2N1` (some centres not stated), with 0; and `CCN(CC)CCCC(C)Nc1ccnc2cc(Cl)ccc12` (configuration not stated) [Chloroquine], with 8.8.
As for `Nc1ccn([C@@H]2O[C@H](CO)[C@@H](O)[C@@H]2O)c(=O)n1` [Cytarabine], the drug sensitivity score is 10.6.
Take `Cc1ccc(NC(=O)c2ccc(CN3CCN(C)CC3)cc2)cc1Nc1nccc(-c2cccnc2)n1` [Imatinib]: the drug sensitivity score stood at 1.3.
Same read-out and setting: then `CC[C@H](CO)Nc1nc(NCc2ccccc2)c2ncn(C(C)C)c2n1` [Seliciclib], with 3.4.

The next assay has as its system OV90. The description is as above. Particulars: exposure time: 72 h; concentration range: 5 concentrations over 10,000-fold range. In a few lines: as §1
As for `CC(C)(C)c1cc(NC(=O)Nc2ccc(Oc3ccnc4[nH]c(=O)cnc34)cc2F)n(-c2ccccc2)n1`, the drug sensitivity score is 12.4.
`CCn1c(-c2nonc2N)nc2c(C#CC(C)(C)O)ncc(OC[C@H]3CCCNC3)c21` gave a drug sensitivity score of 0.6.
With `CCn1cc(-c2ccnc3[nH]c(-c4cccc(CN(C)C)c4)cc23)c(-c2ccc(NC(=O)N(C)C)cc2)n1`, the drug sensitivity score turned out to be 0.3.
As for `CN1CCN(C2CCC(n3cc(-c4ccc(Oc5ccccc5)cc4)c4c(N)ncnc43)CC2)CC1` (configuration not stated), the drug sensitivity score was 10.3.
On the same count and under the same terms, under `CNC(=O)c1ccccc1Nc1nc(Nc2ccc3c(c2OC)CCC[C@H](N2CCN(CCO)CC2)C3)ncc1Cl` stands 8.8; under `CNc1nc(-c2ccc3c(N)n[nH]c3c2)cc(N2C[C@@H](C(=O)NC3CCCCC3)CC[C@H]2C)n1`, 0.
Take `CONC(=O)c1ccccc1Nc1cc(Nc2cc(C)nn2C(C)C)ncc1Cl`: the drug sensitivity score was found to be 0.
`COc1cc2ncnc(Oc3cccc(NC(=O)Nc4cc(C(C)(C)C(F)(F)F)on4)c3)c2cc1OC`: the drug sensitivity score came out at 2.4.
For `COc1ccc2[nH]cc(/C=C3\C(=O)Nc4ccc(NC(=O)CCN5CCCCC5)cc43)c2c1`, the drug sensitivity score amounted to 11.7.
The compound `C[C@@H](Oc1cc(-n2cnc3ccc(CN4CCN(C)CC4)cc32)sc1C(N)=O)c1ccccc1C(F)(F)F` registered a drug sensitivity score of 19.6.
On the same count and under the same terms, then `O=C(NC[C@H](O)CN1CCc2ccccc2C1)c1cc(NC2COC2)ncn1`, with 0; and `O=C1Cc2cc(C(=O)NC3C[C@H]4CC[C@@H](C3)N4S(=O)(=O)CC3CCN(CCCC(F)(F)F)CC3)c(Cl)cc2N1` (some centres not stated), with 0.6.
For `CCN(CC)CCCC(C)Nc1ccnc2cc(Cl)ccc12` (configuration not stated) [Chloroquine], the drug sensitivity score is 10.
Consider `Nc1ccn([C@@H]2O[C@H](CO)[C@@H](O)[C@@H]2O)c(=O)n1` [Cytarabine], for which the drug sensitivity score was 4.4.
`Cc1ccc(NC(=O)c2ccc(CN3CCN(C)CC3)cc2)cc1Nc1nccc(-c2cccnc2)n1` [Imatinib] had a drug sensitivity score of 1.5.
Regarding `CC[C@H](CO)Nc1nc(NCc2ccccc2)c2ncn(C(C)C)c2n1` [Seliciclib], the drug sensitivity score was 0.3.

The subject of the next assay is COV318. The description is as above. To be noted: exposure time: 72 h; concentration range: 5 concentrations over 10,000-fold range. In a few lines:
as §1
In turn, `CC(C)(C)c1cc(NC(=O)Nc2ccc(Oc3ccnc4[nH]c(=O)cnc34)cc2F)n(-c2ccccc2)n1` returned a drug sensitivity score of 0.
In turn, `CCn1c(-c2nonc2N)nc2c(C#CC(C)(C)O)ncc(OC[C@H]3CCCNC3)c21` returned a drug sensitivity score of 0.
On to `CCn1cc(-c2ccnc3[nH]c(-c4cccc(CN(C)C)c4)cc23)c(-c2ccc(NC(=O)N(C)C)cc2)n1`, for which the drug sensitivity score was 0.2.
On the same count and under the same terms, then `CN1CCN(C2CCC(n3cc(-c4ccc(Oc5ccccc5)cc4)c4c(N)ncnc43)CC2)CC1` (configuration not stated), with 6.9.
Same read-out and setting: under `CNC(=O)c1ccccc1Nc1nc(Nc2ccc3c(c2OC)CCC[C@H](N2CCN(CCO)CC2)C3)ncc1Cl` stands 5.2.
`CNc1nc(-c2ccc3c(N)n[nH]c3c2)cc(N2C[C@@H](C(=O)NC3CCCCC3)CC[C@H]2C)n1` registered a drug sensitivity score of 0.1.
Same read-out and setting: then `CONC(=O)c1ccccc1Nc1cc(Nc2cc(C)nn2C(C)C)ncc1Cl`, with 0; and `COc1cc2ncnc(Oc3cccc(NC(=O)Nc4cc(C(C)(C)C(F)(F)F)on4)c3)c2cc1OC`, with 0.
`COc1ccc2[nH]cc(/C=C3\C(=O)Nc4ccc(NC(=O)CCN5CCCCC5)cc43)c2c1` displayed a drug sensitivity score of 5.4.
As for `C[C@@H](Oc1cc(-n2cnc3ccc(CN4CCN(C)CC4)cc32)sc1C(N)=O)c1ccccc1C(F)(F)F`, the drug sensitivity score stood at 6.8.
Take `O=C(NC[C@H](O)CN1CCc2ccccc2C1)c1cc(NC2COC2)ncn1`: the drug sensitivity score amounted to 0.2.
Turning to `O=C1Cc2cc(C(=O)NC3C[C@H]4CC[C@@H](C3)N4S(=O)(=O)CC3CCN(CCCC(F)(F)F)CC3)c(Cl)cc2N1` (some centres not stated), the drug sensitivity score was 0.
`CCN(CC)CCCC(C)Nc1ccnc2cc(Cl)ccc12` (configuration not stated) [Chloroquine]: the drug sensitivity score is 4.9.
Same read-out and setting: under `Nc1ccn([C@@H]2O[C@H](CO)[C@@H](O)[C@@H]2O)c(=O)n1` [Cytarabine] stands 1.
With `Cc1ccc(NC(=O)c2ccc(CN3CCN(C)CC3)cc2)cc1Nc1nccc(-c2cccnc2)n1` [Imatinib], the drug sensitivity score is 0.
For the compound `CC[C@H](CO)Nc1nc(NCc2ccccc2)c2ncn(C(C)C)c2n1` [Seliciclib], the drug sensitivity score was determined as 1.1.

The next assay has as its system Ovsaho. The assay is described as above. Particulars: exposure time: 72 h; concentration range: 5 concentrations over 10,000-fold range. The method in brief: as §1
In the case of `CC(C)(C)c1cc(NC(=O)Nc2ccc(Oc3ccnc4[nH]c(=O)cnc34)cc2F)n(-c2ccccc2)n1`, the drug sensitivity score amounted to 1.6.
